Experimental data reported in US9566282B2, “Methods for identifying and validating selective anti-cancer stem cell agents” (MCMASTER UNIVERSITY, priority 2011, dated 2017).

System: v1O4 and H9 cells
Test: p53 staining of v1O4 and H9 cells
Format: cell-based, human
Text: Variant neoplastic stem cells (v1O4 cells) and normal H9 stem cells were fixed and stained for p53 expression following treatment with selective-activity compounds.

OCCN1CCN(CCCN2c3ccccc3Sc3ccc(C(F)(F)F)cc32)CC1 [fluphenazine]
activation of the p53 stress response (% cells positive for p53): little or no activation of the p53 stress response

OCCN1CCN(CCCN2c3ccccc3Sc3ccc(Cl)cc32)CC1 [perphenazine]
activation of the p53 stress response (% cells positive for p53): little or no activation of the p53 stress response

CN1CCN(CCCN2c3ccccc3Sc3ccc(Cl)cc32)CC1 [prochlorperazine]
activation of the p53 stress response (% cells positive for p53): little or no activation of the p53 stress response

CN1CCN(CCCN2c3ccccc3Sc3ccc(C(F)(F)F)cc32)CC1 [trifluoperazine]
activation of the p53 stress response (% cells positive for p53): little or no activation of the p53 stress response

CN(C)CCCN1c2ccccc2Sc2ccc(C(F)(F)F)cc21 [triflupromazine]
activation of the p53 stress response (% cells positive for p53): little or no activation of the p53 stress response
